Experimental findings from ChEMBL document CHEMBL1127908, “A congener study of zileuton reveals interesting effects on glucuronidation rates” (Bioorg Med Chem Lett, 1994) are described below.

The species entered for one experiment is Homo sapiens. The experiment can be described thus: Tested for its rate of glucuronidation in 0.5-2.5 mg/mL of human microsomal protein; not detected. The format is functional.
Settings: not given
Turning to `CC(c1cc2cccnc2o1)N(O)C(N)=O` (stereo in doubt; (+)-5b) [listing 1 of 2 here], the Glucuronidation rate entry was “Not detected”.

The species named for a further experiment is Homo sapiens. The experiment can be described thus: Concentration required for the inhibition of LTB4 production in human whole blood. The format is functional, organism-based.
Settings: not given
Take `CC(c1cc2ccncc2s1)N(O)C(N)=O` (single isomer, unassigned; (+)) [listing 1 of 2 here]: the half-maximal inhibitory concentration (IC50) worked out at 1500 nM.

As for `CC(c1cc2ncccc2s1)N(O)C(N)=O` (single isomer, unassigned; (+)) [listing 1 of 2 here], half-maximal inhibition (IC50) was put at 3120 nM.

`CC(c1cc2cccnc2o1)N(O)C(N)=O` (single isomer, unassigned; (-)) [listing 1 of 2 here] had a half-inhibitory concentration (IC50) of 11300 nM.

For `CC(c1cc2cccnc2s1)N(O)C(N)=O` (single isomer, unassigned; (-)) [listing 1 of 2 here], the concentration for half-maximal inhibition (IC50) is 3700 nM.

With `CC(c1cc2ccccc2s1)N(O)C(N)=O` (single isomer, unassigned; (-)) [ZILEUTON], the IC50 turned out to be 1880 nM.

Compound `CC(c1cc2ccccc2s1)N(O)C(N)=O` (stereo in doubt; (+)-1b) [ZILEUTON] showed a half-maximal inhibitory concentration (IC50) of 640 nM.

Compound `CC(c1cc2cccnc2s1)N(O)C(N)=O` (stereo in doubt; (+)-2b) [listing 1 of 2 here] came in with an IC50 of 950 nM.

In the case of `CC(c1cc2cccnc2o1)N(O)C(N)=O` (stereo in doubt; (+)-5b) [listing 2 of 2 here], the IC50 amounted to 2780 nM.

`CC(c1cc2ncccc2s1)N(O)C(N)=O` (stereo in doubt; (-)-4a) [listing 1 of 2 here] had a concentration for half-maximal inhibition (IC50) of 6620 nM.

Staying with this experiment, now noted: Homo sapiens, Blood.
`CC(c1cc2ccncc2s1)N(O)C(N)=O` (stereo in doubt; (-)-3a) [listing 1 of 2 here]: the concentration for half-maximal inhibition (IC50) turned out to be 2000 nM.

The species named for the next experiment is Homo sapiens. Description: Tested for its rate of glucuronidation in 0.5-2.5 mg/mL of human microsomal protein; Not detected.
Settings: not given
The format is functional.
Regarding `CC(c1cc2cccnc2o1)N(O)C(N)=O` (single isomer, unassigned; (-)) [listing 2 of 2 here], the Glucuronidation rate entry was “Not detected”.

The species entered for the next experiment is Homo sapiens. The experiment can be described thus: Tested for its rate of glucuronidation in 0.5-2.5 mg/mL of human microsomal protein. The format is functional.
Settings: not given
On to `CC(c1cc2ccncc2s1)N(O)C(N)=O` (single isomer, unassigned; (+)) [listing 2 of 2 here], for which the Glucuronidation rate (nM min-1 mg-1) turned out to be 0.053.

`CC(c1cc2ncccc2s1)N(O)C(N)=O` (single isomer, unassigned; (+)) [listing 2 of 2 here] registered a Glucuronidation rate (nM min-1 mg-1) of 0.006.

Consider `CC(c1cc2ccccc2s1)N(O)C(N)=O` (single isomer, unassigned; (-)), for which the Glucuronidation rate (nM min-1 mg-1) turned out to be 0.155.

As for `CC(c1cc2cccnc2s1)N(O)C(N)=O` (single isomer, unassigned; (-)) [listing 2 of 2 here], the Glucuronidation rate (nM min-1 mg-1) worked out at 0.058.

With `CC(c1cc2ccccc2s1)N(O)C(N)=O` (stereo in doubt; (+)-1b), the Glucuronidation rate (nM min-1 mg-1) came to 0.025.

`CC(c1cc2cccnc2s1)N(O)C(N)=O` (stereo in doubt; (+)-2b) [listing 2 of 2 here] returned a Glucuronidation rate (nM min-1 mg-1) of 0.012.

In turn, `CC(c1cc2ccncc2s1)N(O)C(N)=O` (stereo in doubt; (-)-3a) [listing 2 of 2 here] showed a Glucuronidation rate (nM min-1 mg-1) of 0.241.

With `CC(c1cc2ncccc2s1)N(O)C(N)=O` (stereo in doubt; (-)-4a) [listing 2 of 2 here], the Glucuronidation rate (nM min-1 mg-1) turned out to be 0.037.

In general, IC50 refers to the midpoint of a concentration-inhibition curve.
